The values that follow come from ChEMBL document CHEMBL1201862, “PubChem BioAssay data set” (2004).

Among the test systems are HOP-92; DU-145; OVCAR-8; CAKI-1; OVCAR-4; HL-60; SF-539; EKVX; MOLT-4; OVCAR-5; HCC 2998; HT-29; T47D; SR; SW-620; Hs-578T; SK-MEL-28; UACC-257; OVCAR-3; M14.
What all share (assay): NCI anticancer screen, dose series, 48 h

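Step 1: Grow cells in 96-well plates. Step 2: Expose to compound for 48 hours at 5 concentrations. Step 3: Interpolate endpoints linearly; if unreached, use highest concentration. GI50 = concentration required for 50% inhibition of growth.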 The source made the active and inactive calls. Rule as the data show it: active = GI50 up to about 1.1 µM and inactive = higher.

Take `N=C1N(/N=C/c2ccccn2)/C(=N\c2ccccc2)C(=S)N1c1ccccc1`: the GI50 in the assay on HOP-92 was 10.8 µM (inactive); in the assay on DU-145 it was 3.31 µM (inactive); in the assay with OVCAR-8 it was 3.6 µM (inactive); with CAKI-1 it was 6.44 µM (inactive); in the assay on OVCAR-4, 11.7 µM (inactive); with HL-60, 1.85 µM (inactive). For the same compound, the GI50 is 3.77 µM (inactive) in the assay with SF-539; 3.41 µM (inactive) in the assay with EKVX; > 100 µM (inactive) in the assay on MOLT-4; 4.74 µM (inactive) in the assay on OVCAR-5; 10.2 µM (inactive) with HCC 2998; 2.97 µM (inactive) in the assay with HT-29. Besides, the GI50 in the assay with T47D is 5.5 µM (inactive); with SR it was > 100 µM (inactive); with SW-620, 3.47 µM (inactive); in the assay on Hs-578T, 11.5 µM (inactive); in the assay with SK-MEL-28, 11 µM (inactive); with UACC-257 it was 9.27 µM (inactive).
As for `Cn1c(-c2cccs2)cc(-c2ccsc2)c1-c1cccs1`, the GI50 in the assay with HOP-92 is > 100 µM (inactive); with DU-145, 87.1 µM (inactive); with OVCAR-8 it was > 100 µM (inactive); in the assay on CAKI-1, > 100 µM (inactive); in the assay with OVCAR-4, > 100 µM (inactive); with SF-539, > 100 µM (inactive). Further, the GI50 in the assay with EKVX was 10.2 µM (inactive); in the assay on MOLT-4, 55.7 µM (inactive); in the assay on OVCAR-5, > 100 µM (inactive); with HCC 2998 it was > 100 µM (inactive); with HT-29 it was 55.3 µM (inactive); in the assay with T47D, 3.04 µM (inactive). The GI50 with SR was > 100 µM (inactive); with SW-620 it was > 100 µM (inactive); with OVCAR-3 it was 76.7 µM (inactive); with Hs-578T, 96.4 µM (inactive); with M14, 92.3 µM (inactive); in the assay on SK-MEL-28, 99.1 µM (inactive). Further, the GI50 in the assay with UACC-257 is 52.2 µM (inactive).
With `CC(C)=Cc1cc2c(cc1O)CCC1C2CC[C@@]2(C)C1CC[C@@H]2O` (stereo partly specified), the GI50 is 21.3 µM (inactive) with HOP-92; 14.3 µM (inactive) in the assay on DU-145; 17.9 µM (inactive) in the assay on OVCAR-8; 13.5 µM (inactive) in the assay on CAKI-1; 30.3 µM (inactive) in the assay on OVCAR-4; 15.2 µM (inactive) in the assay with HL-60. In addition, the GI50 in the assay on EKVX is 15.6 µM (inactive); with MOLT-4 it was 6.41 µM (inactive); in the assay on OVCAR-5 it was 15.7 µM (inactive); with HCC 2998 it was 14.1 µM (inactive); in the assay with HT-29, 14.9 µM (inactive); in the assay with T47D, 12.6 µM (inactive). Also, the GI50 with SR was 3.18 µM (inactive); in the assay on SW-620, 8.53 µM (inactive); with Hs-578T, 18.5 µM (inactive); in the assay with M14 it was 10.4 µM (inactive); in the assay on SK-MEL-28, 15.5 µM (inactive); in the assay with UACC-257, 14.9 µM (inactive).
Turning to `COC(=O)/C(=C\Nc1cccc(C)n1)S(=O)(=O)c1ccc(C)cc1`, the GI50 with HOP-92 was 54.5 µM (inactive); in the assay on DU-145 it was > 100 µM (inactive); in the assay on OVCAR-8 it was 77.6 µM (inactive); in the assay on OVCAR-4 it was 93.5 µM (inactive); with HL-60 it was 20.7 µM (inactive); in the assay with SF-539, 52.4 µM (inactive). The GI50 in the assay on MOLT-4 was 28.6 µM (inactive); in the assay with OVCAR-5, > 100 µM (inactive); in the assay on HCC 2998, > 100 µM (inactive); in the assay with HT-29, 47.4 µM (inactive); in the assay on T47D it was 48 µM (inactive); in the assay on SR, 61.2 µM (inactive). For the same compound, the GI50 is 27.1 µM (inactive) with SW-620; 86.3 µM (inactive) with OVCAR-3; 38.9 µM (inactive) with Hs-578T; 45.7 µM (inactive) in the assay with M14; 67 µM (inactive) in the assay on SK-MEL-28; 69.2 µM (inactive) in the assay with UACC-257.
As for `CC(C)=CCC12Cc3ccc(O)cc3C(C(C)CN1)C2C` (stereo unspecified), the GI50 in the assay on HOP-92 is 44 µM (inactive); in the assay on DU-145, > 100 µM (inactive); in the assay with OVCAR-8, > 100 µM (inactive); in the assay on OVCAR-4, > 100 µM (inactive); with HL-60 it was 28.1 µM (inactive); in the assay on SF-539, 72.1 µM (inactive). Moreover, the GI50 in the assay on EKVX is > 100 µM (inactive); in the assay with MOLT-4, 52 µM (inactive); in the assay on OVCAR-5, 58.9 µM (inactive); in the assay with HCC 2998, 20.8 µM (inactive); in the assay with HT-29 it was 44.6 µM (inactive); with T47D, > 100 µM (inactive). The GI50 is 39.2 µM (inactive) with SR; > 100 µM (inactive) with SW-620; 67.6 µM (inactive) with Hs-578T; 21 µM (inactive) in the assay on M14; 49.9 µM (inactive) in the assay with SK-MEL-28; 27.3 µM (inactive) in the assay on UACC-257.
With `CCN1/C(=C/C#C/C(C)=C\c2sc3ccc(Cl)cc3[n+]2CC)Sc2ccc(Cl)cc21`, the GI50 was 1.58 µM (inactive) in the assay with HOP-92; 3.68 µM (inactive) in the assay on DU-145; 3.24 µM (inactive) in the assay on OVCAR-8; 2.82 µM (inactive) in the assay with CAKI-1; 6.53 µM (inactive) with OVCAR-4; 3.57 µM (inactive) with SF-539. Besides, the GI50 with EKVX was 4.25 µM (inactive); with OVCAR-5, 7.94 µM (inactive); with HCC 2998, 4.07 µM (inactive); in the assay on HT-29 it was 3.08 µM (inactive); in the assay with T47D, 2.9 µM (inactive); with SR it was 0.668 µM (active). For the same compound, the GI50 in the assay on SW-620 was 2.43 µM (inactive); in the assay with Hs-578T, 4.72 µM (inactive); in the assay with M14 it was 3.62 µM (inactive); with SK-MEL-28 it was 9.77 µM (inactive); in the assay with UACC-257 it was 3.34 µM (inactive).
On to `CN(C)/C=C/C=C(/C=N/S(=O)(=O)C(F)(F)F)C1C=CN(S(=O)(=O)C(F)(F)F)C=C1`, for which the GI50 was 32.7 µM (inactive) in the assay on HOP-92; 37.2 µM (inactive) in the assay on DU-145; 37.7 µM (inactive) in the assay on OVCAR-8; 25.6 µM (inactive) in the assay with CAKI-1; 15.8 µM (inactive) in the assay on OVCAR-4; 19.8 µM (inactive) in the assay with HL-60. In addition, the GI50 in the assay with EKVX was 30.1 µM (inactive); with MOLT-4, 26.2 µM (inactive); in the assay with OVCAR-5, 30.2 µM (inactive); with HCC 2998, 28.1 µM (inactive); in the assay on HT-29, 27.5 µM (inactive); in the assay with T47D it was 23.4 µM (inactive). The GI50 in the assay on SR was 30.1 µM (inactive); in the assay on SW-620, 38.1 µM (inactive); in the assay on OVCAR-3 it was 32.4 µM (inactive); in the assay with Hs-578T, 69.2 µM (inactive); in the assay on M14 it was 36.1 µM (inactive); in the assay with SK-MEL-28 it was 91.8 µM (inactive). For the same compound, the GI50 with UACC-257 is 23.1 µM (inactive).
Regarding `Cc1c2c(nc3ccccc13)C(=O)c1cccnc1C2=O`, the GI50 was 65.5 µM (inactive) in the assay on HOP-92; 21.6 µM (inactive) in the assay with DU-145; 16.8 µM (inactive) in the assay with OVCAR-8; 56.2 µM (inactive) with OVCAR-4; 15.1 µM (inactive) in the assay with HL-60; 5.41 µM (inactive) in the assay with SF-539. Moreover, the GI50 with EKVX was 20 µM (inactive); in the assay with MOLT-4 it was 9.71 µM (inactive); with OVCAR-5, 60.4 µM (inactive); with HCC 2998, 7.62 µM (inactive); with HT-29 it was 9.84 µM (inactive); with T47D it was 26.7 µM (inactive). Also, the GI50 was 6.5 µM (inactive) in the assay with SR; 12.1 µM (inactive) with SW-620; 11.7 µM (inactive) in the assay on OVCAR-3; 33.5 µM (inactive) with Hs-578T; 6.52 µM (inactive) with M14; 11.5 µM (inactive) in the assay on SK-MEL-28. Moreover, in the assay on UACC-257, the GI50 was 6.97 µM (inactive).
